In patent EP1772146A1, “Polyunsaturated fatty acids as bace inhibitors” (Neuropharma, S.A., priority 2005, dated 2007):
Where two headings read alike, the source gives them in different places.

Biological target: T1, rhBACE-1 β-Secretase recombinant human (Homo sapiens, UniProt P56817)
T1 construct: purchased R&D Systems 931-AS
Test: BACE assay (FRET, fluorogenic peptide substrate cleavage)
Assay type: biochemical
Details: for activity at 10 µM: read-out: % BACE Activity (10^-5 M)
Text: The aim of this assay is to determine if a compound, either synthetic or of marine origin, is a BACE-1 inhibitor, to avoid the formation of Aβ. This assay is based on FRET technology (Fluorescence Resonance Energy Transfer). FRET is used to measure cleavage of a peptide substrate, among other uses. […] When a substrate peptide cleavage occurs, the energy balance is broken and all the donor fluorescence can be observed. The increase in fluorescence is linearly related to the rate of proteolysis (Gordon, GW et al., 1998). In this assay the reaction occurs between an enzyme, purified BACE-1, and a fluorogenic peptidic substrate who present the "Swedish mutation". The peptide cleavage by BACE-1 produces fluorescence energy and enzymatic activity can be quantified. The reagents which are used in this assay are the following: • rhBACE-1 β-Secretase recombinant human (R&D Systems. Ref. 931-AS). • Fluorogenic Peptide Substrate IV (R&D Systems. Ref. ES004). • B-SECRETASE INHIBITOR H-4848. (BACHEM. Ref. H-4848.0001). • FLUOSTAR OPTIMA plate reader with 320 nm excitation filter and 405 nm emission filter (Biogen cientifica). • Black microwell plate, 96 wells (Nunc. Ref. 00006877). Supplier: Dismadel. • Sodium acetate.
The assay is carried out in a 96 wells microplate. The final concentration of substrate is 3,5 µM per well, and the enzyme concentration is 0,5 µg/ml. The final volume of the assay is 100 µl per well and all reagents are diluted in Reaction Buffer. The compounds are tested at a concentration of 10^-5. The control in the assay is the commercial inhibitor β-Secretase inhibitor H-4848, which is tested at 300 nM. All the samples and controls are studied by duplicate.
The plate is mixed gently and changes in the fluorescence are measured using the plate reader, with "BACE" protocol. The temperature should be preferably maintained between 25 and 30 °C. Measurements are carried out every ten minutes during an hour. The first measure is subtracted from the last to calculate the fluorescence increase, evaluating the enzymatic activity. The 100% activity is calculated as the mean of the results of wells without sample or inhibitor.
Further information regarding this assay may be found in the following references, which are incorporated by reference into the present application: • Andrau, D et al; "BACE1- and BACE2-expressing human cells: characterization of beta-Amyloid precursor protein-derived catabolites, design of a novel fluorimetric assay, and identification of new in vitro inhibitors". J Biol Chem. 2003 Jul 11;278(28):25859-66. Gordon, GW et al; "Quantitative fluorescence resonance energy transfer measurements using fluorescence microscopy." Biophys J. 1998 May; 74:2702-13.

[1] = comparative examples (derivatives of arachidonic acid) at 10^-5 M, mean results, remaining enzyme activity, 100% = wells without sample or inhibitor
[2] = fatty acids of formula (I) at 10^-5 M, mean results, remaining enzyme activity, 100% = wells without sample or inhibitor

T1 sequence (P56817 46-457 limits assumed): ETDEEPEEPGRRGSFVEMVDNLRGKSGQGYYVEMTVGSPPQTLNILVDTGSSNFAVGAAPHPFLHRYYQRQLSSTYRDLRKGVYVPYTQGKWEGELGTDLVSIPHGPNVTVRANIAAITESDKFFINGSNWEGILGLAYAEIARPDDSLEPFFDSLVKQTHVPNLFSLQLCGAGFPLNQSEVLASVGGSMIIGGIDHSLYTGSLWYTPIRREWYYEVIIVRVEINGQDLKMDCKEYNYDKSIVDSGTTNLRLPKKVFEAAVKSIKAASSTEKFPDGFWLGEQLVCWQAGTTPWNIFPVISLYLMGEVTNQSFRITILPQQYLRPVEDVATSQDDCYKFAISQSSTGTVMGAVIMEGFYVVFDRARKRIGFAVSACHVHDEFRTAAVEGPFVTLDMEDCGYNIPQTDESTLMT

activity at 10 µM [1] [%] | Molecule | activity at 10 µM [%] | further results
100 | CCCCCC=CCC=CCC=CCC=CCCCCOC(C)=O [Arachidonyl Acetate, Acetic acid icosa-5,8,11,14-tetraenyl ester] |  | 
100 | CCCCCC=CCC=CCC=CCC=CCCCCO [Arachidonyl alcohol, Icosa-5,8,11,14-tetraen-1-ol] |  | 
100 | CCCCCC=CCC=CCC=CCC=CCCCC(=O)OCC [Ethyl arachidonate, 5,8,11,14-Eicosatetraenoic acid ethyl ester] |  | 

Further lines, the molecule ahead of its results:

Molecule | activity at 10 µM [1] [%] | activity at 10 µM [%] | further results
CCCCCC=CCC=CCC=CCC=CCCCC(=O)NCCO [Anandamide, Icosa-5,8,11,14-tetraenoic acid (2-hydroxy-ethyl)-amide] |  | 100 | 
CCCCC/C=C\C/C=C\C/C=C\C/C=C\CCCC(=O)O [Arachidonic acid, cis,cis,cis,cis-5,8,11,14-Eicosatetraenoic acid] |  | 48.7 | 
CC/C=C\C/C=C\C/C=C\C/C=C\C/C=C\C/C=C\CCC(=O)O [Docosahexaenoic acid (DHA), cis-4,7,10,13,16,19-Docosahexaenoic Acid] |  |  | activity at 10 µM [2]: 82%
CCCCC/C=C\C/C=C\CCCCCCCC(=O)O [Linoleic acid, cis-9,cis-12-Octadecadienoic acid] |  |  | activity at 10 µM [2]: 55%
CC/C=C\C/C=C\C/C=C\CCCCCCCC(=O)O [Linolenic acid, cis,cis,cis-9,12,15-Octadecatrienoic acid] |  | 55.5 | 
Cyclopropanecarboxylic acid icosa-5,8,11,14-tetraenylam ide [Arachidonylcyclopropylamide (ACPA)] |  |  | % BACE Activity (10^-5 M) (comparative examples (derivatives of arachidonic acid) at 10^-5 M, mean results, remaining enzyme activity, 100% = wells without sample or inhibitor, 10 µM): 100%
